Consider twelve compounds from patent publication US20240269139A1, “COMPOUNDS FOR TARGETED PROTEIN DEGRADATION OF KINASES” (DANA-FARBER CANCER INSTITUTE, INC., priority 2020, published 2024).

SMILES strings stand for the structures. Where two headings read alike, the source gives them in different places.

Holding throughout (type): cell-based
Experiment [1] has as its target T1, protein kinases (human kinome) (Homo sapiens, UniProt P42680).
T1 sequence (P42680 1-631): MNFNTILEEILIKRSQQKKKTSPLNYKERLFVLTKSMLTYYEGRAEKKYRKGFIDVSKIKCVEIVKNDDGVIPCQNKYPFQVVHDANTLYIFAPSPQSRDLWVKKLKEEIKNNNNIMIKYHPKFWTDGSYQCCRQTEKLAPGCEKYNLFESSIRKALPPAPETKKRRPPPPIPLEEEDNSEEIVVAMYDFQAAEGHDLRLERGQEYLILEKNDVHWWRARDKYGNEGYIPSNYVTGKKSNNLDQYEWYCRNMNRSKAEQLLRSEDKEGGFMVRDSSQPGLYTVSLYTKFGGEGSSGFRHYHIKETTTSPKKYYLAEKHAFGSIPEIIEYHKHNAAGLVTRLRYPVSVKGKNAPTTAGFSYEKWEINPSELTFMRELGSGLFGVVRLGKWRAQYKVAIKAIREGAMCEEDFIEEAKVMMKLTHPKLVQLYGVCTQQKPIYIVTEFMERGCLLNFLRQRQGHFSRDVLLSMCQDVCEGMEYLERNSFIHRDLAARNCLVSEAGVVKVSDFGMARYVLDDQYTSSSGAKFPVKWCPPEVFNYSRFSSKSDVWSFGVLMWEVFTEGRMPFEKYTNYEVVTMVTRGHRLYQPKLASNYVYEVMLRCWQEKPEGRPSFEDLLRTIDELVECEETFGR
The following applies: TEC (P42680).

For experiment [2], the target named is protein kinases (human kinome) (Homo sapiens, UniProt Q15418). The following applies: for logFC: RPS6KA1 (Q15418-1), direction down.
Chain of protein kinases (human kinome) (Homo sapiens, UniProt Q15418) (Q15418 whole entry): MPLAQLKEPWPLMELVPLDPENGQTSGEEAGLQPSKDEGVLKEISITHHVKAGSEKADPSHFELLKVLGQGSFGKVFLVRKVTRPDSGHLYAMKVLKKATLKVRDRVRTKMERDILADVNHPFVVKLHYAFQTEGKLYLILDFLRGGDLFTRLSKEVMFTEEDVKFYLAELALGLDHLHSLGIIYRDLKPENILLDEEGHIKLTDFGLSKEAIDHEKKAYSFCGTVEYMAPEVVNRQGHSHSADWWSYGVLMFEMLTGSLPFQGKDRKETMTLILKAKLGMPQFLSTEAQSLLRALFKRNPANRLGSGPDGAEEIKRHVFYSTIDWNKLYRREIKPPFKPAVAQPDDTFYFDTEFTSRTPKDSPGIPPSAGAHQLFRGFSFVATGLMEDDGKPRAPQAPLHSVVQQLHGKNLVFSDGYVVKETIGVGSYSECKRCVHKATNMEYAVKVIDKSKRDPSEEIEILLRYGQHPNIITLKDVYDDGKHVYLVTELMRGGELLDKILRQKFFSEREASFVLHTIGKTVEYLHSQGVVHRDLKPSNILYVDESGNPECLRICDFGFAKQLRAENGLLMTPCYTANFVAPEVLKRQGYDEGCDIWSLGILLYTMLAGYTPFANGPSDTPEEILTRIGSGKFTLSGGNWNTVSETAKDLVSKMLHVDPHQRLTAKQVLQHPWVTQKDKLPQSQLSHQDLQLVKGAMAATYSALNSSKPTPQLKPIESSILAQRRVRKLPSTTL
In experiment [3] the target is T2, protein kinases (human kinome) (Homo sapiens, UniProt O60285).
T2 sequence (O60285 1-661): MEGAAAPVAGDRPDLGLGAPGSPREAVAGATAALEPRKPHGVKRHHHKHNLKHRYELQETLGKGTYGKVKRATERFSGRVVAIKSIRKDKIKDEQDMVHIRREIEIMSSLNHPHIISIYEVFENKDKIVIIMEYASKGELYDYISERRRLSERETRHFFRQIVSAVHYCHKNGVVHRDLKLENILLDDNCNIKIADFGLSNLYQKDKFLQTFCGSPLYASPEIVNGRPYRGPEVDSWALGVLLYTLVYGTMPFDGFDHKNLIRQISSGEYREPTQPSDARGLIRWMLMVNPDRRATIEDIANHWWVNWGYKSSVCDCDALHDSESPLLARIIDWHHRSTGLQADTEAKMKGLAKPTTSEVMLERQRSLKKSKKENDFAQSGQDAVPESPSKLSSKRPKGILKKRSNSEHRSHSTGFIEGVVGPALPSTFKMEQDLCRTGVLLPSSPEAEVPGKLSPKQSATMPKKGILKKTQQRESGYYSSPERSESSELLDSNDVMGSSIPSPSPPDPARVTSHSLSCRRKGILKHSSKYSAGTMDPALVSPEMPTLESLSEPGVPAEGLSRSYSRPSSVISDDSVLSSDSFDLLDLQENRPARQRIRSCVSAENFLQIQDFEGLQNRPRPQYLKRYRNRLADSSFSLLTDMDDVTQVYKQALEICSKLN
The settings on record: NUAK1 (O60285).

The target in experiment [4] is protein kinases (human kinome) (Homo sapiens, UniProt P06241). The settings on record: for logFC: FYN (P06241-1), direction down.
Chain of protein kinases (human kinome) (Homo sapiens, UniProt P06241) (P06241 whole entry): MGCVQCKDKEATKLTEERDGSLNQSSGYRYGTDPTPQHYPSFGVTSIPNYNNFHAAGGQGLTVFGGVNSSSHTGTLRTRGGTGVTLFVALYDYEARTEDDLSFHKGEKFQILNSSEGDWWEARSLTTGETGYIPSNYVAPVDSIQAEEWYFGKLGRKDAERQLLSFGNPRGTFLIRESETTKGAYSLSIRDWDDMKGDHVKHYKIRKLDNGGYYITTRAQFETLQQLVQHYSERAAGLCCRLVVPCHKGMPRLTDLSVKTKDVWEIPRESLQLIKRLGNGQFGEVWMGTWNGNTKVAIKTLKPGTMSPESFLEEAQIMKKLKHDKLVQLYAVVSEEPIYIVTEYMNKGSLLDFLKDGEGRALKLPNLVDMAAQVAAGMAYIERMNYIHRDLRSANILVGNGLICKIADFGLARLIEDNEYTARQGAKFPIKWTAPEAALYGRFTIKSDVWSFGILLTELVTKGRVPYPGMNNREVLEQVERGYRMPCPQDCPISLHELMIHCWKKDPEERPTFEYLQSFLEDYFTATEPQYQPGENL
Experiment [5] has as its target protein kinases (human kinome) (Homo sapiens, UniProt P12931). The following applies: for logFC of SRC: Accession P12931; for logFC: SRC (P12931), direction down.
Setting [6] is: experiment wp137, direction down.
Where [7] appears, read: experiment wp076, direction down.
[8] abbreviates: experiment wp146, direction down.
The mark [9] stands for this setting: Accession P06241-1, experiment wp105.
The mark [10] stands for this setting: experiment wp107, direction down.
Setting [11] is: Accession P06241-1, experiment wp107.

Chain of protein kinases (human kinome) (Homo sapiens, UniProt P12931) (P12931 whole entry): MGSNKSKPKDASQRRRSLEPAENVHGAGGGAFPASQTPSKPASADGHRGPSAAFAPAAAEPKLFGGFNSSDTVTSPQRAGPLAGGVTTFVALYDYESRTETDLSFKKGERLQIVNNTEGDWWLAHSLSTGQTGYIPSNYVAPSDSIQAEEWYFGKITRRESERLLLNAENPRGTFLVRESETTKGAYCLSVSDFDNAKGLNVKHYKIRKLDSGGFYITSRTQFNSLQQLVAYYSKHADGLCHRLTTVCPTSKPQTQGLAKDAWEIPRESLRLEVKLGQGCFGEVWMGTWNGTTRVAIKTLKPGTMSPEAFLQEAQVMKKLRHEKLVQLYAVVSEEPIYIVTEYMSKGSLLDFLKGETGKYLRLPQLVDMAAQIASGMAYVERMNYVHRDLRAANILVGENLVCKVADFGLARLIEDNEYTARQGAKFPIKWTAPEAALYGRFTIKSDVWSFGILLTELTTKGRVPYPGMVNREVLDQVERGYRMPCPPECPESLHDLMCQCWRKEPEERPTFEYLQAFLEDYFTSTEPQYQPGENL

`CC(C)S(=O)(=O)c1ccccc1Nc1nc(Nc2ccc(N3CCN(CCOCCOCCNC(=O)CNc4cccc5c4C(=O)N(C4CCC(=O)NC4=O)C5=O)CC3)cc2)ncc1Cl` (stereo not shown) [TL12.186]: the results for the logFC in experiment [1] (experiment wp137), in experiment [1] (setting [6]) and in experiment [2] (experiment wp131) were −2.11, −2.11 and −0.3562, respectively. Moreover, the “logFC RPS6KA1 (Q15418-1)” value in experiment [2] (experiment wp131) is −0.3562.

For the compound `O=C1CCC(N2C(=O)c3cccc(NCCCCCCCCN4CCC(NC(=O)c5[nH]ncc5NC(=O)c5c(Cl)cccc5Cl)CC4)c3C2=O)C(=O)N1` (stereo not shown) [MFH.5.126.1], the logFC in experiment [3] (experiment wp076) and in experiment [3] (setting [7]) was −1.649 each time.

`Cc1ccc(NC(=O)c2cccc(C(F)(F)F)c2)cc1N1Cc2cnc(Nc3ccc(N4CCN(CCCCC(=O)N[C@H](C(=O)N5C[C@H](O)C[C@H]5C(=O)N[C@@H](C)c5ccc(-c6scnc6C)cc5)C(C)(C)C)CC4)nc3)nc2N(C)C1=O` [DB1113]: in experiment [2] (experiment wp168), the logFC is −0.7297 and the “logFC RPS6KA1 (Q15418-1)” value is −0.7297.

For `Cc1cc(Nc2ncc(Br)c(Nc3cccc(F)c3C(N)=O)n2)ccc1S(=O)(=O)NCCOCCOCCOCCOCCNc1cccc2c1C(=O)N(C1CCC(=O)NC1=O)C2=O` (stereo not shown) [TMX.02.174], the logFC is −1.361 in experiment [3] (experiment wp146), −1.361 in experiment [3] (setting [8]), −0.9362 in experiment [1] (experiment wp146) and −0.9362 in experiment [1] (setting [8]).

Take `CCc1cnn2c(N(Cc3ccc(N)nc3)C(=O)CCOCCOCCOCCNC(=O)CNc3cccc4c3C(=O)N(C3CCC(=O)NC3=O)C4=O)cc(N3CCCC[C@H]3CCO)nc12` (stereo partly shown) [MFH.5.115.2]: the logFC in experiment [3] (experiment wp076) and in experiment [3] (setting [7]) was −0.5264 each time.

For the compound `Cc1ccc(NC(=O)c2cccc(C(F)(F)F)c2)cc1N1Cc2cnc(Nc3ccc(N4CCN(Cc5cn(CCCCCOc6cccc7c6C(=O)N(C6CCC(=O)NC6=O)C7=O)nn5)CC4)nc3)nc2N(C)C1=O` (stereo not shown) [DB0646, N-(3-(7-((6-(4-((1-(5-((2-(2,6-Dioxopiperidin-3-yl)-1,3-dioxoisoindolin-4-yl)oxy)pentyl)-1H-1,2,3-triazol-4-yl)methyl)piperazin-1-v)pyridin-3-yl)amino)-1-methyl-2-oxo-1,4-dihydropyrimido[4,5-d]pyrimidin-3(2H)-yl)-4-methylphenyl)-3-(trifluoromethyl)benzamide], the “logFC FYN” value is given as −0.4621 in experiment [4] (setting [9]) and −0.3685 in experiment [4] (Accession P06241, experiment wp152). Moreover, the “logFC FYN (P06241)” value in experiment [4] (Experiment wp152, direction of change down) was −0.3685. For the same compound, the logFC in experiment [4] (experiment wp105) is −0.4621; in experiment [5] (experiment wp152), −0.3941; in experiment [5] (experiment wp160, 4 hr), −0.5186; in experiment [5] (experiment wp160, 8 hr), −0.6833; in experiment [1] (experiment wp107), −0.8282; in experiment [1] (setting [10]), −0.8282. The compound also displayed a logFC in experiment [2] (experiment wp160, 8 hr) of −0.413. Moreover, the “logFC of SRC” value in experiment [5] (experiment wp152) was −0.3941; in experiment [5] (experiment wp160, 4 hr), −0.5186; in experiment [5] (experiment wp160, 8 hr), −0.6833. In addition, the “logFC RPS6KA1 (Q15418-1)” value in experiment [2] (experiment wp160, 8 hr) was −0.413.

For `NC(=O)c1c(F)cccc1Nc1nc(Nc2ccc(S(=O)(=O)NCCOCCOCCOCCOCCNc3cccc4c3C(=O)N(C3CCC(=O)NC3=O)C4=O)cc2)ncc1Br` (stereo not shown) [TMX.02.138], the logFC in experiment [3] (experiment wp146) and in experiment [3] (setting [8]) was −0.8254 in each case.

In the case of `Cc1ccc(NC(=O)c2cccc(C(F)(F)F)c2)cc1N1Cc2cnc(Nc3ccc(N4CCN(CCCOc5cccc6c5C(=O)N(C5CCC(=O)NC5=O)C6=O)CC4)nc3)nc2N(C)C1=O` (stereo not shown) [DB0662], in experiment [5] (experiment wp168), the “logFC of SRC” value is listed as −0.9018. For the same compound, the “logFC of SRC (P12931)” value in experiment [5] (Experiment wp168) is −0.9018. Also, in experiment [2] (experiment wp168), the logFC was −0.4724 and the “logFC RPS6KA1 (Q15418-1)” value is −0.4724.

`Cc1ccc(C(=O)Nc2ccc(CN3CCN(CCCOCCOCCOCCNC(=O)COc4cccc5c4C(=O)N(C4CCC(=O)NC4=O)C5=O)CC3)c(C(F)(F)F)c2)cc1C#Cc1cnc2cccnn12` (stereo not shown) [SB1.G.187]: the “logFC FYN” value in experiment [4] (setting [9]) was −0.7697; in experiment [4] (setting [11]), −0.3601. In addition, the figures for the logFC in experiment [4] (experiment wp105) and in experiment [4] (experiment wp107) were −0.7697 and −0.3601, respectively.

As for `CC(C)S(=O)(=O)c1ccccc1Nc1nc(Nc2ccc(N3CCN(CCOCCNC(=O)CNc4cccc5c4C(=O)N(C4CCC(=O)NC4=O)C5=O)CC3)cc2)ncc1Cl` (stereo not shown) [SK.3.91], the “logFC FYN” value in experiment [4] (setting [9]) is on record as −0.3586; in experiment [4] (setting [11]), −0.4288. The logFC in experiment [4] (experiment wp105) was −0.3586; in experiment [4] (experiment wp107), −0.4288; in experiment [5] (experiment wp160, 4 hr) it was −0.5292; in experiment [1] (experiment wp103), −0.6497; in experiment [1] (experiment wp103, direction down), −0.6497; in experiment [1] (experiment wp107), −1.146. Also, the logFC in experiment [1] (setting [10]) is given as −1.146; in experiment [2] (experiment wp107), −0.3671; in experiment [2] (experiment wp160, 4 hr), −0.363; in experiment [2] (experiment wp172), −0.4561. For the same compound, the “logFC of SRC” value in experiment [5] (experiment wp160, 4 hr) is reported as −0.5292. The “logFC RPS6KA1 (Q15418-1)” value is reported as −0.4561 in experiment [2] (Experiment wp172); −0.3671 in experiment [2] (experiment wp107); −0.363 in experiment [2] (experiment wp160, 4 hr).

For `CC(C)S(=O)(=O)c1ccccc1Nc1nc(Nc2ccc(N3CCN(CCOCCOCCC(=O)NCCNc4cccc5c4CN(C4CCC(=O)NC4=O)C5=O)CC3)cc2)ncc1Cl` (stereo not shown) [TL13.97], the logFC in experiment [1] (experiment wp137) and in experiment [1] (setting [6]) was −1.712 in each case.

`Cn1c(=O)c(-c2c(Cl)cccc2Cl)cc2cnc(Nc3ccc(OCCNC(=O)CCCCCCNC(=O)COc4cccc5c4C(=O)N(C4CCC(=O)NC4=O)C5=O)cc3)nc21` (stereo not shown) [SB1.G.192.1]: in experiment [4] (Accession P06241-1, experiment wp081), the “logFC FYN” value is recorded as −0.9314. For the same compound, the logFC in experiment [4] (experiment wp081) was −0.9314.
